Patent US6294564A, “Benzimidazoles and benzoxazoles” (Byk Gulden Lomberg Chemische Fabrik GmbH, priority 1998, dated 2001)

Test system: PDE4
Assay: Inhibition of PDE4 Activity (activity test according to Bauer and Schwabe adapted to microtitre plates)
Format: biochemical
Conditions: Inhibition of the PDE4 Activity; inhibitory concentration as -log IC50 (mol/l)

| SMILES | -log IC50 |
| --- | --- |
| COc1ccc(-c2nc3cc(C(N)=O)ccc3o2)c2c1OC1(CCOCC1)C2 [compound 7, 2-(2,3-Dihydro-7-methoxybenzofuran-2-spiro-4'-tetrahydropyran-4-yl)benzoxazole-5-carboxamide] | 6.80 |
| COc1ccc(-c2nc3ccc(C(=O)OCCN4CCOCC4)cc3o2)c2c1OC1(CCCC1)C2 [compound 9, 2-morpholin-4-ylethyl 2-(2,3-dihydro-7-methoxybenzofuran-2-spiro-1'-cyclopentan4-yl)-benzoxazole-6-carboxylate] | 6.90 |
| COc1ccc(-c2nc3ccc(C(N)=O)cc3o2)c2c1OC1(CCOCC1)C2 [compound 12, 2-(2,3-Dihydro-7-methoxybenzofuran-2-spiro-4'-tetrahydropyran-4-yl)benzoxazole-6-carboxamide] | 6.42 |
| COc1ccc(-c2nc3ccc(C(=O)O)cc3o2)c2c1OC1(CCOCC1)C2 [compound 11, 2-(2,3-Dihydro-7-methoxybenzofuran-2-spiro-4'-tetrahydropyran-4-yl) benzoxazole-6-carboxylic acid] | 6.85 |
| COc1ccc(-c2nc3cc(C(=O)O)ccc3o2)c2c1OC1(CCCC1)C2 [compound 3, 2-(2,3-Dihydro-7-methoxybenzofuran-2-spiro-1'-cyclopentan-4-yl)benzoxazole-5-carboxylic acid] | 7.65 |
| COc1ccc(-c2nc3cc(C(N)=O)ccc3[nH]2)c2c1OC1(CCCC1)C2 [compound 2, 2-(2,3-Dihydro-7-methoxybenzofuran-2-spiro-1'-cyclopentan-4-yl)benzimidazole-5-carboxamide] | 7.69 |
| COc1ccc(-c2nc3cc(C(=O)O)ccc3o2)c2c1OC1(CCOCC1)C2 [compound 6, 2-(2,3-Dihydro-7-methoxybenzofuran-2-spiro-4'-tetrahydropyran-4-yl)benzoxazole-5-carboxylic acid] | 7.05 |
| COc1ccc(-c2nc3cc(C(=O)O)ccc3[nH]2)c2c1OC1(CCCC1)C2 [compound 1, 2-(2,3-Dihydro-7-methoxybenzofuran-2-spiro-1'-cyclopentan-4-yl)benzimidazole-5-carboxylic acid] | 7.87 |
| COc1ccc(-c2nc3ccc(C(=O)O)cc3o2)c2c1OC1(CCCC1)C2 [compound 8, 2-(2,3-Dihydro-7-methoxybenzofuran-2-spiro-1'-cyclopentan-4-yl)benzoxazole-6-carboxylic acid] | 8.21 |
